Experiment: Inhibition of erythropoietin-stimulated STAT5 expressed in human U2OS cells

Cc1cc(Nc2nc(N[C@@H](C)c3ncc(F)cn3)c(C#N)nc2C)[nH]n1 [(S)-3-(1-(5-fluoropyrimidin-2-yl)ethylamino)-6-methyl-5-(5-methyl-1H-pyrazol-3-ylamino)pyrazine-2-carbonitrile]
EC50: 40 nM
